Legend:
Assay in all cases: relative viability (nuclei count vs DMSO), 5 days (fraction); higher = more cells survive
Nelarabine + Foretinib = compound: COc1nc(N)nc2c1ncn2[C@@H]1O[C@H](CO)[C@@H](O)[C@@H]1O [Nelarabine] + COc1cc2c(Oc3ccc(NC(=O)C4(C(=O)Nc5ccc(F)cc5)CC4)cc3F)ccnc2cc1OCCCN1CCOCC1 [Foretinib] (partner 0.25 µM)
Method in brief: (§1)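 Lung cancer cell lines were seeded in 1536-well plates and dosed by pin tool the next day, with either a single drug or a fixed anchor-drug dose combined with five library-drug doses (not always all listed) spaced in √10 steps. Five days later, one step fixed the cells and stained their nuclei (final 0.05% Triton X-100, 1% formaldehyde, 1 ug/ml Hoechst), and nuclei were counted on 4× images. Relative viability is the nuclei count in treated wells divided by the count in vehicle wells, and each value is the median of duplicate plates.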

Adavosertib + Dasatinib = compound: C=CCn1c(=O)c2cnc(Nc3ccc(N4CCN(C)CC4)cc3)nc2n1-c1cccc(C(C)(C)O)n1 [Adavosertib] + Cc1nc(Nc2ncc(C(=O)Nc3c(C)cccc3Cl)s2)cc(N2CCN(CCO)CC2)n1 [Dasatinib] (partner 0.075 µM)
Method in brief: as §1

Nelarabine + Trametinib = compound: COc1nc(N)nc2c1ncn2[C@@H]1O[C@H](CO)[C@@H](O)[C@@H]1O [Nelarabine] + CC(=O)Nc1cccc(-n2c(=O)n(C3CC3)c(=O)c3c(Nc4ccc(I)cc4F)n(C)c(=O)c(C)c32)c1 [Trametinib] (partner 0.02 µM)
Method in brief: as §1

Nelarabine + Pictilisib = compound: COc1nc(N)nc2c1ncn2[C@@H]1O[C@H](CO)[C@@H](O)[C@@H]1O [Nelarabine] + CS(=O)(=O)N1CCN(Cc2cc3nc(-c4cccc5[nH]ncc45)nc(N4CCOCC4)c3s2)CC1 [Pictilisib] (partner 1 µM)
Method in brief: as §1

Cell Line	relative viability (Nelarabine + Foretinib; first compound 0.01 µM)	relative viability (Nelarabine + Foretinib; first compound 0.03162 µM)	relative viability (Nelarabine + Foretinib; first compound 0.1 µM)	relative viability (Nelarabine + Foretinib; first compound 0.3162 µM)	relative viability (Nelarabine + Foretinib; first compound 1 µM)	relative viability (Adavosertib + Dasatinib; first compound 0.01 µM)	relative viability (Adavosertib + Dasatinib; first compound 0.03162 µM)	relative viability (Adavosertib + Dasatinib; first compound 0.1 µM)	relative viability (Adavosertib + Dasatinib; first compound 0.3162 µM)	relative viability (Nelarabine + Trametinib; first compound 0.01 µM)	relative viability (Nelarabine + Trametinib; first compound 0.03162 µM)	relative viability (Nelarabine + Trametinib; first compound 0.1 µM)	relative viability (Nelarabine + Trametinib; first compound 0.3162 µM)	relative viability (Nelarabine + Trametinib; first compound 1 µM)	relative viability (Nelarabine + Pictilisib; first compound 0.01 µM)	relative viability (Nelarabine + Pictilisib; first compound 0.03162 µM)	relative viability (Nelarabine + Pictilisib; first compound 0.1 µM)	relative viability (Nelarabine + Pictilisib; first compound 0.3162 µM)	relative viability (Nelarabine + Pictilisib; first compound 1 µM)
NCI-H2126	1.24	1.13	1.18	1.41	1.08	0.602	0.619	0.564	0.561	0.666	0.612	0.599	0.52	0.538	0.517	0.48	0.453	0.483	0.5
HOP-62	1.08	1	1.12	1.05	1.05	0.693	0.678	0.644	0.661	0.47	0.516	0.369	0.36	0.408	0.833	0.743	0.815	0.574	0.706
NCI-H647	1.22	1.02	1.26	1.26	1.37	0.2	0.21	0.259	0.107	0.584	0.423	0.537	0.548	0.502	0.475	0.363	0.492	0.445	0.37
NCI-H2170	1.21	0.974	0.934	1.02	1.07	0.522	0.48	0.608	0.389	1.26	0.804	0.997	0.944	0.911	0.326	0.253	0.253	0.34	0.316
NCI-H1793	0.84	0.747	0.709	0.731	0.713	0.392	0.308	0.439	0.36	0.474		0.421	0.424	0.466	0.367	0.35	0.293	0.314	0.256
NCI-H2023	0.942	0.737	0.876	0.899	0.818	0.584	0.583	0.471	0.226	0.721	0.61	0.46	0.632	0.505	0.309	0.316	0.176	0.216	0.252
SW 1573	0.889	1.09	0.882	0.952	0.86	0.62	0.424	0.633	0.215	0.667	0.599	0.566	0.631	0.512	0.68	0.53	0.535	0.485	0.639
NCI-H727	0.881	0.97	0.912	0.772	0.945	0.316	0.478	0.338	0.301	0.377	0.43	0.358	0.35	0.321	0.581	0.476	0.348	0.397	0.302
NCI-H441	0.98	0.977	0.918	0.933	0.943	0.5	0.511	0.575	0.396	0.432	0.482	0.469	0.446	0.466	0.488	0.376	0.543	0.461	0.582
LCLC-97TM1	0.996	0.792	1.01	0.922	0.935	0.881	0.675	0.886	0.801			0.189	0.203	0.224	0.196	0.202	0.152	0.248	0.22
NCI-H2405	1.07	1.04	0.95	0.988	1.03	0.198	0.217	0.183	0.206	0.642	0.612	0.528	0.677	0.643	0.532	0.464	0.382	0.49	0.492
NCI-H460	1.49	1.23	1.13	1.23	1.06	0.477	0.519	0.429	0.359	0.124	0.213	0.0809	0.259	0.164	0.408	0.431	0.379	0.407	0.337
NCI-H650	1.09	1.04	0.968	0.886	1.13	0.37	0.494	0.5	0.465	1.05	0.805	0.922	1.01	1.06	1.05	0.789	0.762	0.917	1.04
NCI-H661	1.15	1.2	1.02	1.05	1.06	0.864	0.846	0.75	0.347	0.651	0.718	0.628	0.668	0.756	0.345	0.362	0.462	0.388	0.354
LK-2	1.3		1.19	1.17	1.22	0.286	0.229	0.291	0.359	0.903	0.474	0.795	0.956	0.86	0.68		0.503	0.436	0.651
LU99A	0.934	0.683	0.706	0.801	0.889	0.472	0.51	0.532	0.355	0.548	0.552	0.554	0.561	0.599	0.302	0.269	0.327	0.321	0.299
EPLC-272H	0.81	0.503	0.655	0.66	0.584	0.312	0.339	0.363	0.205	0.293	0.307	0.317	0.274	0.293	0.337	0.269	0.315	0.302	0.298
